Measurements reported in paper PMC8562569 (Nature cancer, 2021).

Target: PIKfyve (Homo sapiens, UniProt Q9Y2I7)
Experiment: cellular thermal shift assay in VCaP cells, […], […] h
Type: cell-based

PIKfyve, sequence (Q9Y2I7 2-2098): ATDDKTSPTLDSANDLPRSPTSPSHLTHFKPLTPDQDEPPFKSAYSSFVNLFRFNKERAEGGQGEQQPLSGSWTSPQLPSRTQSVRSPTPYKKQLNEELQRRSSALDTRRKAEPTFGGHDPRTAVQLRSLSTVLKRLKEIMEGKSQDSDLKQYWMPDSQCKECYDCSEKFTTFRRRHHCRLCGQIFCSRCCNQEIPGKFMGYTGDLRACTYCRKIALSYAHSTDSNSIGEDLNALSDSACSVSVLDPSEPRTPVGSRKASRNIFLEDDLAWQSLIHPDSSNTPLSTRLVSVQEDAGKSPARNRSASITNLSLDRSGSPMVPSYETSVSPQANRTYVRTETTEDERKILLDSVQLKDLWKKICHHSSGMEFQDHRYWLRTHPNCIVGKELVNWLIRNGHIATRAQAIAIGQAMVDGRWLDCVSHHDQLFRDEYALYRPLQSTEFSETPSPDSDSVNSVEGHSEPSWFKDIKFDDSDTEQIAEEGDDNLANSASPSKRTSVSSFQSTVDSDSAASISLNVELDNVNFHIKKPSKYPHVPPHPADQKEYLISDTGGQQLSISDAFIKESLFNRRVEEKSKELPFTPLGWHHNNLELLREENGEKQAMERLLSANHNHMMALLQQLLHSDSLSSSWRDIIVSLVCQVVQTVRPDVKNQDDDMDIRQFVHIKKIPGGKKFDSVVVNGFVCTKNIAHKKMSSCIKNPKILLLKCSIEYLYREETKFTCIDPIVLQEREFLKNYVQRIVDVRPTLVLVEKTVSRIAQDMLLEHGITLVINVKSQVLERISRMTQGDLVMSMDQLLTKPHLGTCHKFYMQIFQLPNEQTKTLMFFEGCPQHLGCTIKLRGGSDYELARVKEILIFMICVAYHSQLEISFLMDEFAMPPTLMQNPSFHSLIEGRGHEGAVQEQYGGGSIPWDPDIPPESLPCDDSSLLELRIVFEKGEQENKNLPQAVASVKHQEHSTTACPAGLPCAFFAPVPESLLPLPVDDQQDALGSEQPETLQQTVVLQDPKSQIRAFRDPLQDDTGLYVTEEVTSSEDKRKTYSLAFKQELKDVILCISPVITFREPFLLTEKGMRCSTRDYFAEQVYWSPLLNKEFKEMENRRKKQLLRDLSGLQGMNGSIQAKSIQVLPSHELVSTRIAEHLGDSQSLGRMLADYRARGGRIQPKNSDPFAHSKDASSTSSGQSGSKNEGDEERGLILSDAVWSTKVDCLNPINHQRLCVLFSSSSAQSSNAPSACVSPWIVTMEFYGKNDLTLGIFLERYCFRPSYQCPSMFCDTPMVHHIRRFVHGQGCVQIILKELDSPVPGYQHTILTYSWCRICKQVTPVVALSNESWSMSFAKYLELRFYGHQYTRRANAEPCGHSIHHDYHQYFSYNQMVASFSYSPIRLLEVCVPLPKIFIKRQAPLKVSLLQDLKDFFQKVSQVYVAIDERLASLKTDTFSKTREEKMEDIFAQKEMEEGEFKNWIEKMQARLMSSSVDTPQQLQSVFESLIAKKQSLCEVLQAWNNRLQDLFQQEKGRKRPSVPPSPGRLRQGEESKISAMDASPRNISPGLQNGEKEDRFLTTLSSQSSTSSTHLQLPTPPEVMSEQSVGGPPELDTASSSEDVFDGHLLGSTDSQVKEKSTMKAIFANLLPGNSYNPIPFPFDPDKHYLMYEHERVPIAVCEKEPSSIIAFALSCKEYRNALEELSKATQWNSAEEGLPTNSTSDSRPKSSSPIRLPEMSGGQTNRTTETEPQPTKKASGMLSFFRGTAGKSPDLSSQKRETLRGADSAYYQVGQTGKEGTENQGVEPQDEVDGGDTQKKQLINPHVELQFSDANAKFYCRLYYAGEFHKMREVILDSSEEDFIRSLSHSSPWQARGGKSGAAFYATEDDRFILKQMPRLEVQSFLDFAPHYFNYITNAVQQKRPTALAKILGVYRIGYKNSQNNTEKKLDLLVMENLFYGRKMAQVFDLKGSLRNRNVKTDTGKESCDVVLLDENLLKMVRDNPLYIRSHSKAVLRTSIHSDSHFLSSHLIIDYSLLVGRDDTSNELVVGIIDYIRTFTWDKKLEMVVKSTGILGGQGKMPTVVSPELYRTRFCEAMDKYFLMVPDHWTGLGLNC

## Cc1cccc(/C=N/Nc2cc(N3CCOCC3)nc(OCCc3ccccn3)n2)c1 [apilimod]
  cellular thermal shift assay in VCaP cells, 1 μM, 2 h: cellular thermal shift assay in VCaP cells, with the known PIKfyve inhibitor apilimod serving as a positive control
